Earlier results, collected in patent publication US20230172904A1, “COMBINATION OF AN ANTIALLERGIC AGENT WITH MUSCARINIC ANTAGONIST AND/OR DOPAMINERGIC AGONIST FOR USE IN PREVENTING/STOPPING OF AXIAL MYOPIA IN HUMAN” (priority 2016, published 2023).

How the values were obtained:
axial myopia [1] = settings: one drop of 1% Atropine collyrium at bedtime, chinese children, placebo controlled
axial myopia [2] = system: axial myopia

## CN1[C@@H]2CC[C@H]1C[C@@H](OC(=O)C(CO)c1ccccc1)C2 (stereo partly drawn) [Atropine]
Axial myopia [1]
  subjects in whom the development of axial myopia was halted (stopping the elongation of the bulb): 90%
Axial myopia [2]; dose reduced to 0.1%, 0.05% and 0.01%, children
  effect on myopia at reduced doses: dose dependent effect of atropine that is still acceptable at the lower concentration
Axial myopia [2]; pediatric population, allergic response of the conjunctiva
  subjects who developed ocular redness and itching: around 5%
